# pKi: −log10 of the molar value. “Also recorded” adds a separate entry of the source.
# Legend:
# [1] = test system: neurons; settings: 24 hours; cited from earlier work
# [2] = test system: caspase-3 activation in neurons; settings: cited from earlier work
# [3] = test system: caspase-3 activation in tumor cells; settings: cited from earlier work
# [4] = test system: MDA-MB-435 or MDA-MB231 or SKOV-3 cells; assay: Tumor cell viability (MTS) assay; format: cell-based
# Experimental: The cytotoxicity of test compounds is determined using the CellTiter96 Aqueous One Solution Assay (Promega, Madison, Wis.). Briefly, MDA-MB-435 or MDA-MB231 or SKOV-3 cells were seeded in a 96-well plate at a density of 2000 cells/well on the day prior to treatment with sigma-2 receptor selective ligands. […] The plate is read at 490 nm in a Victor3 plate reader (PerkinElmer Life and Analytical Sciences, Shelton, Conn.). The EC^50 value, defined as the concentration of the sigma ligand required to inhibit cell viability by 50% relative to untreated cells, is determined from the dose response curve for each cell line. Siramesine is accepted as an agonist.
# [5] = target: Sigma-2 receptor (Rattus norvegicus (Rat), UniProt Q5U3Y7); assay: Sigma-2 receptor competitive radioligand binding assay; settings: read-out: Sigma-2 Receptor Affinity, Ki
# Sigma-2 receptor, sequence (Q5U3Y7 whole entry): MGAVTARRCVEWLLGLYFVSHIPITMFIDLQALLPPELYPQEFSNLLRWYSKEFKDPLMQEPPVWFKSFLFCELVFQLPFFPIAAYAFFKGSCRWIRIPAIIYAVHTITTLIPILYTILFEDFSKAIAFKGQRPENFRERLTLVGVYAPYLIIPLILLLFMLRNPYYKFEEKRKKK
# Experimental: Radioligand binding assays for Sigma-1 receptors and Sigma-2 receptors were carried out by a commercial contract research organization. For Sigma-1 binding, various concentrations of test compounds from 100 μM to 1 nM were used to displace 8 nM [^3H](+)pentazocine from endogenous receptors on Jurkat cell membranes (Ganapathy M E et al. 1991, J Pharmacol. Exp. Ther. 289:251-260). 10 μM Haloperidol was used to define non-specific binding. For Sigma-2 receptors various concentrations of test compounds from 100 μM to 1 nM were used to displace 5 nM [^3H] […] (Bowen W D, et al. 1993, Mol. Neuropharmcol 3:117-126). 10 μM Haloperidol was used to define non-specific binding. […] Radioactivity on the dried filter discs was measured using a liquid scintillation analyzer (Tri-Carb 2900TR; PerkinElmer Life and Analytical Sciences). The displacement curves were plotted and the Ki values of the test ligands for the receptor subtypes were determined using GraphPad Prism (GraphPad Software Inc., San Diego, Calif.). The percentage specific binding was determined by dividing the difference between total bound (disintegrations per minute) and nonspecific bound (disintegrations per minute) by the total bound (disintegrations per minute).
# The affinity of candidate sigma-2 ligand compounds at sigma-1 and sigma-2 receptors was also determined by displacement of different known labeled sigma-2 or sigma-1 ligands. […]
pKi [5],SMILES,nuclear morphology / nuclear intensity compared to vehicle [1],block of caspase-3 activation by agonist SV-119 [2],caspase-3 activation [2],caspase-3 activation [3],inhibition of caspase-3 activation [3],Action [4]
,"COc1cc2c(cc1OC)CN(CCCCNC(=O)c1cc(C)ccc1OC)CC2 [RHM-1, N-[4-(3,4-dihydro-6,7-dimethoxyisoquinolin-2(1H)-yl)butyl]-2-methoxy-5-methylbenzamide]",do not decrease nuclear intensity,not able to block activation,do not induce caspase-3 activity,do not induce caspase-3 activity,inhibits the activation,
,COc1ccc(C)cc1NC(=O)OC1C[C@H]2CCC[C@@H](C1)N2CCCCCCN (stereo partly shown) [SV-119],cause significant abnormal nuclear morphology,,activate caspase-3,activate caspase-3,,"Full agonist (If the EC50s of a sigma-2 ligand test compound is less than 2 fold of EC50 of siramesine, this sigma-2 ligand test compound is considered as an agonist)"
,Fc1ccc(-n2cc(CCCCN3CCC4(CC3)OCc3ccccc34)c3ccccc32)cc1 [Siramesine],cause significant abnormal nuclear morphology,,activate caspase-3,activate caspase-3; also recorded: induces caspase-3 activity,,
< 5.00,CC(C)(C)Oc1cc(CCC(C)(C)N2Cc3cccc(C(=O)O)c3C2)ccc1O [compound 75],,,,,,
